The values that follow come from patent publication US12070445B2, “System and assay for monitoring production/release of membrane-lytic toxins in bacteria and compounds for modulating same” (priority 2021, dated 2024).

Each structure is given as a SMILES string.

The experiment deals with agr. Kind of experiment: agr YFP transcriptional reporter assay (S. aureus AH1677 with pDB59). The format is cell-based. The settings on record: Staphylococcus aureus, 24 h, read-out: IC50 in the agr reporter assay. Summed up: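 S. aureus AH1677 carrying the agr-YFP reporter, diluted 1:50 in BHI with 1:3 compound dilutions, incubated ~24 h at 37 °C with shaking. YFP fluorescence (ex 510/em 544) corrected for BHI background and OD600, normalized to DMSO vehicle. IC50 from 3-parameter regression; technical triplicate, ≥3 biological replicates.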
For orientation: A reporter such as luciferase makes a cellular process visible.

By IC50 is commonly meant the concentration at which inhibition is half-maximal. As for `CC(C)c1ccc(S(=O)(=O)c2nnn3c2nc(O)c2ccccc23)cc1` [Compound 6, savirin], the IC50 was found to be 5.5 µM.
